From ChEMBL document CHEMBL1201862, “PubChem BioAssay data set” (2004) come the findings set out here.

Test systems include BT-549; MDA-N; HOP-18; DMS-273; DLD-1; LXFL 529; DMS-114; XF498; RXF 631.
Common to all, as to assay: DTP human tumour cell line panel, 48 h

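The compound was tested at five concentrations on cells cultured in 96-well plates, with a 48-hour exposure period. GI50 = concentration required for 50% inhibition of growth.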 Active and inactive are the calls of the source. Cut-off read from the data, not from the text of the source: active = GI50 up to about 1.1 µM and inactive = higher. Where only a bound is given, the exact number is not on record here.

`Cc1cc(O)c(-c2cc(O)c(C)cc2O)cc1O`: the GI50 was 12.2 µM (inactive) in the experiment on BT-549 and 8.34 µM (inactive) with MDA-N.

As for `Clc1c2nc3ccccc3c-2[nH]c2ccccc12`, the GI50 in the experiment on BT-549 was 64.1 µM (inactive); with MDA-N, 3.57 µM (inactive).

For `COC(=O)c1c(C)c2c(c(C)c1O)OC(=O)c1c(C)cc(O)c(C=O)c1O2`, the GI50 with BT-549 and with MDA-N was > 100 µM (inactive) throughout.

On to `Cc1cc(O)cc2c1O[C@@]1(C)CCC3[C@@]4(C)CC[C@H](O)C(C)(C)C4CC[C@@]3(C)[C@H]1C2` (some centres undefined), for which the GI50 was 14.7 µM (inactive) in the experiment with HOP-18; 4.05 µM (inactive) with DMS-273; 4.06 µM (inactive) in the experiment with DLD-1; 2.85 µM (inactive) with LXFL 529; 5.09 µM (inactive) in the experiment on DMS-114.

As to `CC(=O)Nc1ccc(-c2nnc(SCC(=O)Nc3cccc(Cl)c3)o2)cc1`, the GI50 is 12.6 µM (inactive) with HOP-18; 17.9 µM (inactive) in the experiment with DMS-273; 14.3 µM (inactive) in the experiment with DLD-1; 10.9 µM (inactive) with LXFL 529; 1.36 µM (inactive) in the experiment with DMS-114.

Take `COc1ncnc2c1cnn2Cc1cn(CCCCO)nn1`: the GI50 in the experiment on BT-549 and in the experiment on MDA-N was > 100 µM (inactive) each time.

As for `CCN(CC)CCn1nc(N)c2nc3cc(Cl)ccc3nc21`, the GI50 was > 100 µM (inactive) in the experiment with BT-549 and 86.5 µM (inactive) in the experiment on MDA-N.

On to `O=C1C=CC(=O)c2c1ccc1c3ccccc3n(Cc3ccc([N+](=O)[O-])cc3)c21`, for which the GI50 in the experiment on BT-549 and with MDA-N was > 100 µM (inactive) each time.

In the case of `COc1ccc(CC2OC3(CCCCC3)CC3CCCCN32)cc1` (centres undefined), the GI50 was > 100 µM (inactive) in the experiment with BT-549 and 52.6 µM (inactive) with MDA-N.

`CS(=O)(=O)OC1CN2CCC1CC2` (centres undefined): the GI50 in the experiment with BT-549 and in the experiment on MDA-N was > 100 µM (inactive) throughout.

For the molecule `COC(=O)CC1C(=O)OCc2c1cc1n(c2=O)Cc2c-1nc1ccccc1c2OC` (centres undefined), the GI50 is 64.7 µM (inactive) in the experiment on HOP-18; 12.7 µM (inactive) with DMS-273; > 100 µM (inactive) in the experiment on XF498; > 100 µM (inactive) in the experiment with LXFL 529; 34.3 µM (inactive) in the experiment on DMS-114.

In the case of `CC(=O)N1CCN(C=S)CC1`, the GI50 in the experiment on DMS-273, in the experiment on RXF 631, with DLD-1, with XF498, with LXFL 529 and in the experiment on DMS-114 was > 100 µM (inactive) throughout.

For the molecule `CC(=O)NNc1nc(C)c(C(=O)NNC(=O)C(=O)Nc2c(C)cccc2C)s1`, the GI50 is 29.2 µM (inactive) with HOP-18; 31.8 µM (inactive) in the experiment on DMS-273; 26.2 µM (inactive) with RXF 631; 45.5 µM (inactive) with DLD-1; 41.8 µM (inactive) in the experiment on LXFL 529.

As for `O=C1[C@@H]2C3C=CC([C@H]4C(=O)N(CO)C(=O)[C@@H]34)[C@@H]2C(=O)N1CO`, the GI50 in the experiment on HOP-18 was 34 µM (inactive); in the experiment on DMS-273 it was > 42.7 µM (inactive); in the experiment on DLD-1, 48.5 µM (inactive); in the experiment on XF498, > 100 µM (inactive); in the experiment with LXFL 529, 79.1 µM (inactive); in the experiment on DMS-114 it was 32.1 µM (inactive).

With `CCOC(=O)C1=C(C)N(NC(N)=O)C2(N)N(NC(N)=O)C(C)=C(C(=O)OCC)C12C#N` (centres undefined), the GI50 in the experiment on DMS-273, in the experiment on RXF 631, with DLD-1, with XF498, in the experiment with LXFL 529 and with DMS-114 was > 100 µM (inactive) throughout.

As for `O=C1CC(O)C=C1Nc1ccc(Cl)cc1` (centres undefined), the GI50 with HOP-18 was 29.4 µM (inactive); with DMS-273 it was 13.1 µM (inactive); with RXF 631, 31.4 µM (inactive); in the experiment with DLD-1, 22.3 µM (inactive); with LXFL 529 it was 6.76 µM (inactive); with DMS-114, 26.4 µM (inactive).

In the case of `c1ccc2c(c1)N=C(c1cccc3ccccc13)CC(c1cccc3ccccc13)S2` (centres undefined), the GI50 in the experiment with HOP-18 is 5.57 µM (inactive); in the experiment with DMS-273, 4.46 µM (inactive); in the experiment with DLD-1, 3.6 µM (inactive); in the experiment with XF498, 9.79 µM (inactive); in the experiment with LXFL 529 it was 3.27 µM (inactive); in the experiment on DMS-114 it was 2.74 µM (inactive).

On to `CCC(C)OC(=O)C1C2CCC(O2)C1C(=O)O` (centres undefined), for which the GI50 is > 100 µM (inactive) in the experiment on HOP-18; > 42.8 µM (inactive) in the experiment with DMS-273; > 51.4 µM (inactive) in the experiment with DLD-1; > 62.7 µM (inactive) with LXFL 529; > 41.6 µM (inactive) with DMS-114.

`O=C(CC1(O)C(=O)Nc2ccccc21)c1ccncc1` (centres undefined): the GI50 with DMS-273, with DLD-1, with LXFL 529 and in the experiment with DMS-114 was > 100 µM (inactive) in each case.

For the molecule `COc1cc(C2SC(=N)Nc3c2c(C)nn3C(=O)c2ccc(Cl)cc2)ccc1O` (centres undefined), the GI50 with BT-549 is > 10 µM (inactive); in the experiment with MDA-N it was 0.236 µM (active).

`CC(C)(C)c1cc(OCc2nnc3sc(S)nn23)c(Cl)cc1OCc1nnc2sc(S)nn12`: the GI50 with BT-549 was 30.5 µM (inactive); in the experiment with MDA-N, 18.9 µM (inactive).

On to `Cn1nc2ccc3nccc(N4CCN(CCO)CC4)c3c2n1`, for which the GI50 with BT-549 and in the experiment on MDA-N was > 100 µM (inactive) in each case.

Regarding `COc1c(-c2ccc(O)c(O)c2)oc2c(O)c(O)cc(O)c2c1=O`, the GI50 in the experiment on BT-549 was > 100 µM (inactive); in the experiment on MDA-N, 61.5 µM (inactive).

For the molecule `COC(=O)CC(=O)OC`, the GI50 with HOP-18, in the experiment on DMS-273, in the experiment on DLD-1, in the experiment with XF498, in the experiment on LXFL 529 and in the experiment on DMS-114 was > 100 µM (inactive) each time.

Regarding `CC1OC(n2cc(F)c(=O)[nH]c2=O)C(O[Si](C)(C)C(C)(C)C)C1O[Si](C)(C)C(C)(C)C` (centres undefined), the GI50 in the experiment on BT-549 was 13.4 µM (inactive); with MDA-N, 15.5 µM (inactive).

As to `Cc1cc(C#N)c[n+](C)c1`, the GI50 with BT-549 and in the experiment on MDA-N was > 100 µM (inactive) in each case.

On to `Cc1ccc(/C=C/C(=O)c2cccc3ccccc23)cc1`, for which the GI50 is 19 µM (inactive) in the experiment with DMS-273, > 10 µM (inactive) in the experiment with DLD-1, 15.3 µM (inactive) with XF498 and 12.7 µM (inactive) in the experiment with LXFL 529.

As to `O=C1NC2C3CC(OCc4ccccc4)(OCc4ccccc4)C2OC3O1` (centres undefined), the GI50 in the experiment on HOP-18 was > 50 µM (inactive); with DMS-273 it was > 50 µM (inactive); with DLD-1, > 50 µM (inactive); with XF498, > 50 µM (inactive); in the experiment with LXFL 529 it was < 0.005 µM (active); in the experiment with DMS-114, > 50 µM (inactive).

Take `O=C(O)CCC(NC(=O)c1ccc(Nc2nc3ccccc3nc2C(=O)O)cc1)C(=O)O` (centres undefined): the GI50 in the experiment on BT-549 and with MDA-N was > 100 µM (inactive) throughout.

On to `CCOC(=O)c1[nH]c2c(OC)n[n+]([O-])cc2c1[N+](=O)[O-]`, for which the GI50 in the experiment with HOP-18 is 20.5 µM (inactive); with DLD-1, 17.2 µM (inactive); in the experiment on XF498 it was 16.1 µM (inactive); in the experiment on LXFL 529 it was 17.3 µM (inactive); in the experiment with DMS-114 it was 22.2 µM (inactive).

With `CN(C(=O)C12C3C4C5C3C1(C(=O)C13C6C7C8C6C1C8C73)C5C42)C(C)(C)C` (centres undefined), the GI50 in the experiment with HOP-18 is > 50 µM (inactive); with DMS-273, > 21.4 µM (inactive); with DLD-1, > 23.2 µM (inactive); with XF498, > 50 µM (inactive); in the experiment on LXFL 529, > 50 µM (inactive); with DMS-114, > 23.6 µM (inactive).

Consider `Clc1ccc(C2=Nc3ccccc3SC(c3ccc(Cl)c(Cl)c3)C2)c(Cl)c1` (centres undefined), for which the GI50 with DMS-273 is 11.5 µM (inactive); with DLD-1, 12.6 µM (inactive); in the experiment with XF498, 12.4 µM (inactive); with LXFL 529, 15.3 µM (inactive); in the experiment on DMS-114, 9.89 µM (inactive).

For the molecule `CCc1cccc(NC(=O)c2cc(/C=C/c3ccccc3)nc(S)n2)c1`, the GI50 in the experiment with HOP-18, in the experiment on DMS-273, in the experiment with LXFL 529 and in the experiment on DMS-114 was > 100 µM (inactive) each time.

In the case of `O=C1[C@@H]2C(c3cccc([N+](=O)[O-])c3)=NO[C@@H]2C(=O)N1c1ccc(Cc2ccc(N3C(=O)[C@H]4C(c5cccc([N+](=O)[O-])c5)=NO[C@H]4C3=O)cc2)cc1`, the GI50 with HOP-18, in the experiment on DMS-273, in the experiment with RXF 631, in the experiment with DLD-1, in the experiment with LXFL 529 and in the experiment with DMS-114 was > 100 µM (inactive) in each case.

Take `Cc1ccc(S(=O)(=O)N/N=C2\CCCCC23CCC(=O)NC3)cc1` (centres undefined): the GI50 with HOP-18, in the experiment on DMS-273, in the experiment on RXF 631, with DLD-1, with LXFL 529 and in the experiment with DMS-114 was > 100 µM (inactive) each time.

Take `COC1O[C@@H]2COC(C)(C)O[C@@H]2C(=O)N1Nc1ccc([N+](=O)[O-])cc1` (some centres undefined): the GI50 in the experiment with HOP-18 is > 100 µM (inactive); in the experiment with DMS-273, > 100 µM (inactive); with DLD-1, 35.1 µM (inactive); with XF498, > 100 µM (inactive); with LXFL 529 it was 55.1 µM (inactive).

As to `C[N+](C)(C)CCCCCc1c2nc(c(CCCCC[N+](C)(C)C)c3ccc([nH]3)c(CCCCC[N+](C)(C)C)c3nc(c(CCCCC[N+](C)(C)C)c4ccc1[nH]4)C=C3)C=C2`, the GI50 in the experiment on BT-549 and with MDA-N was > 100 µM (inactive) throughout.

As to `CC1=C2C(=O)[C@H]3[C@@H](CC=C4C[C@@H](O)CC[C@@]43C)[C@@H]2CC[C@]12O[C@@H]1C[C@H](C)CN[C@H]1[C@H]2C` [JERVINE], the GI50 with HOP-18 is 17.1 µM (inactive); in the experiment on BT-549 it was > 100 µM (inactive); with DMS-273, 22 µM (inactive); in the experiment with RXF 631, 23.2 µM (inactive); in the experiment on DLD-1 it was 29.9 µM (inactive); with LXFL 529, 18.4 µM (inactive). Also, the GI50 in the experiment with DMS-114 was 18.9 µM (inactive); in the experiment on MDA-N, > 100 µM (inactive).

For the molecule `CC(C)(Sc1cc(C(C)(C)C)c(O)c(C(C)(C)C)c1)Sc1cc(C(C)(C)C)c(O)c(C(C)(C)C)c1` [PROBUCOL], the GI50 in the experiment with BT-549 and in the experiment on MDA-N was > 100 µM (inactive) throughout.

In general, GI50 refers to the concentration at which growth is held to half of that of the control.
